Non-standard residues stand in square brackets, D forms with d. Residues, ends and D or L forms follow the SMILES beside them. dPhe(4-Cl) = N[C@H](Cc1ccc(Cl)cc1)C(=O)O; d2Nal = N[C@H](Cc1ccc2ccccc2c1)C(=O)O; dCit = NC(=O)NCCC[C@@H](N)C(=O)O; d3Pal = N[C@H](Cc1cccnc1)C(=O)O

Experimental findings from US20210198318A1, “Methods and Compositions for Treating Diseases and Conditions Associated with Gonadotropin Releasing Hormone Receptor” (The Board of Regents of the University of Oklahoma, priority 2018, published 2021) are described below.

The target of experiment [1] is T1, GnRHR (Homo sapiens, UniProt P30968).
T1 construct: host or cells: Chem-1 cells
T1 sequence (P30968 1-328): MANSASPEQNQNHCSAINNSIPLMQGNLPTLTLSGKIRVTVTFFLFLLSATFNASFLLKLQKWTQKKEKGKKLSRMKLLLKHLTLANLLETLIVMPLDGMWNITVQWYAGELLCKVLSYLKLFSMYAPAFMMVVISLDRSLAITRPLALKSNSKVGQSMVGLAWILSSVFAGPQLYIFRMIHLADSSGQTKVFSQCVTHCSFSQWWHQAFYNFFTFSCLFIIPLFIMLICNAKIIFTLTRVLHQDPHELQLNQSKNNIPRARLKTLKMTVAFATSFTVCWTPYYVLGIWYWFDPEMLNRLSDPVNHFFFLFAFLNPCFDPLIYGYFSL
The experiment in a line: GnRHR-transfected Chem-1 cell-based calcium flux assay. The settings on record: for dosage at which the assay responds (relative Ca^2+ induced Fluo-8 NW fluorescence, % of maximal fluorescence): GnRHR-transfected cells, dosage response curve, n=4. How it is done:
Cell-based GnRHR-AAb Activity Assays: Activity of GnRHR AAb in IgG purified from sera of subjects with PCOS and controls were analyzed with a GnRHR-transfected Chem-1 cell-based calcium flux assay (Eurofins Scientific, USA). Briefly, Chem-1 cells were dispensed into 96-well plates and incubated 24 h, after which assay plates were washed sufficiently with Hank's Balanced Salt Solution (HBSS) supplemented with 20 mM HEPES, 2.5 mM Probenecid at pH 7.4 to remove all trace of Media. Component. Serum-derived IgG (0.1 mg/mL) was added in the presence and absence of the non-selective GnRHR blockade. Samples were tested in triplicate. FLUO-8®, AM Ca^2+ dye (Cat No: 21080, AAT Bioquest, Inc., Sunnyvale, Calif.) was prepared by dissolving 1 mg of Fluo-8 NW in […] and applied to the assay plate (Ca^2+ dye at 10 μL/10 mL is sufficient for loading one plate). Excitation wave length was set at 470-495 nm and emission wave length at 515-565 nm for Ca^2+ dyes. Maximal fluorescence signal was obtained by HIDEX Sense reader.
Methods Summary: Infertile PCOS subjects based on Rotterdam criteria and infertile ovulatory controls seen at an academic fertility clinic 2012-2016 were included in the study if they had stored serum prior to beginning treatment. Serum was screened by ELISA for AAbs to GnRHR using a synthetic 28-mer peptide from the ECL2 and ECL 1 of human GnRHR as coating antigen. Optical density (OD) values were read at 405 nm at 60 minutes. Activity of GnRHR AAb in sera and in IgG purified from sera of 4 subjects with PCOS and 4 controls was analyzed with a GnRHR-transfected Chem-1 cell-based calcium flux assay. AAb-specific effect was tested by GnRHR blockade. Group data are presented as mean±SD or percent. Groups were compared using Student t or Pearson chi-squared tests. An ROC curve was used to assess OD as a diagnostic test for PCOS.
For orientation: Calcium assays in cells follow changes in intracellular calcium, usually with a dye or a luminescent sensor.

Experiment [2] concerns Abs present in the sera. Kind of experiment: Mimotope PIN ELISA with sequential GnRHR-ECL2 synthetic peptides and PCOS serum. Type of experiment: binding, human. Conditions: sera 1:200; 8-mer pins offset by two amino acids. How it is done:
The peaks represent sites of increased binding by Abs present in the sera. The amino acid sequence for each pin is shown at the bottom. Representative PCOS with 2 dominant peaks. Each color bar represents the time of O.D. reading after addition of chromagen (30, 60, and 90 min).
A Mimotope PIN ELISA assay was performed on 11 PCOS subjects and 5 control subjects using sequential GnRHR-ECL2 synthetic peptides, each 8 amino acid residues in length, and each one different from the preceding peptide by addition of the next two C-terminal residues and removal of the last 2 N-terminal residues (see Table 1). The specific peptides were biochemically bonded to the tip of the pin that is attached to the 96 well plate cover in such a fashion that the peptides were immersed in the buffer/sera (1:200) mixture in the well. After incubation, the pins and wells were washed thoroughly, and the well mixture was then replaced by the anti-human-2nd AB (1:10,000) and incubated and washed again; the colorimetric agent was then added. The wells were sequentially counted at 10 min intervals, and values were compared for analysis of O.D. for each pin. The values and pin sequences are shown with time of reading in color code.

For the compound `CC(=O)N[C@H](Cc1ccc2ccccc2c1)C(=O)N[C@H](Cc1ccc(Cl)cc1)C(=O)N[C@H](Cc1cccnc1)C(=O)N[C@@H](CO)C(=O)N[C@@H](Cc1ccc(O)cc1)C(=O)N[C@H](CCCNC(N)=O)C(=O)N[C@@H](CC(C)C)C(=O)N[C@@H](CCCNC(=N)N)C(=O)N1CCC[C@H]1C(=O)N[C@H](C)C(N)=O` [cetrorelix] (Ac-[d2Nal][dPhe(4-Cl)][d3Pal]SY[dCit]LRP[dA]-NH2), the “effect on GnRHR activity (relative fluorescence, % of maximum fluorescence) of PCOS subjects” value in experiment [1] (cetrorelix 10^−5M, 2-hour exposure, samples from PCOS subjects) is listed as “suppressed the relative fluorescence expressed as % of maximum fluorescence to baseline”. For the same compound, the “effect on GnRHR activity (relative fluorescence, % of maximum fluorescence) of control subjects” value in experiment [1] (cetrorelix 10^−5M, 2-hour exposure, samples from control subjects) is “not significantly changed”. `CCNC(=O)[C@@H]1CCCN1C(=O)[C@H](CCCNC(=N)N)NC(=O)[C@H](CC(C)C)NC(=O)[C@@H](CC(C)C)NC(=O)[C@H](Cc1ccc(O)cc1)NC(=O)[C@H](CO)NC(=O)[C@H](Cc1c[nH]c2ccccc12)NC(=O)[C@H](Cc1c[nH]cn1)NC(=O)[C@@H]1CCC(=O)N1` [leuprolide]: in experiment [1] (GnRHR transfected cells, n=4, p<0.01), the “total GnRHR activity of leuprolide in the presence of IgG purified from PCOS subjects versus buffer+leuprolide” value is “increased the total activity at least in an additive fashion”. The “dosage at which the assay responds (relative Ca^2+ induced Fluo-8 NW fluorescence, % of maximal fluorescence)” value in experiment [1] is listed as 10^−8 M.

“FSQCVTHC (listed as Homo sapiens) [SEQ ID NO:8]”: the “site of increased binding by Abs in PCOS sera (minipin ELISA peak)” value in experiment [2] is given as “Overlapping Peak 1”. On the same count and under the same terms, the result for “VTHCSFSQ (listed as Homo sapiens) [SEQ ID NO:6]” reads “Overlapping Peak 2”.

Regarding “human Leutenizing Hormone Releasing Hormone [hLHRH]”, the “dosage at which the assay responds (relative Ca^2+ induced Fluo-8 NW fluorescence, % of maximal fluorescence)” value in experiment [1] is on record as 10^−9 M.
